This is an account of results in patent publication US20240217990A1 (Gilead Sciences, Inc., priority 2021, published 2024).

For one assay, the target named is T1, TLR8 (Homo sapiens, UniProt Q9NR97).
T1 construct: Human peripheral blood mononuclear cells (PBMCs) consist of lymphocytes, monocytes and dendritic cells that express TLR7, TLR8 and TLR9; endogenous in cells; host or cells: cryopreserved human PBMCs from healthy donors
T1 sequence (Q9NR97 27-1041): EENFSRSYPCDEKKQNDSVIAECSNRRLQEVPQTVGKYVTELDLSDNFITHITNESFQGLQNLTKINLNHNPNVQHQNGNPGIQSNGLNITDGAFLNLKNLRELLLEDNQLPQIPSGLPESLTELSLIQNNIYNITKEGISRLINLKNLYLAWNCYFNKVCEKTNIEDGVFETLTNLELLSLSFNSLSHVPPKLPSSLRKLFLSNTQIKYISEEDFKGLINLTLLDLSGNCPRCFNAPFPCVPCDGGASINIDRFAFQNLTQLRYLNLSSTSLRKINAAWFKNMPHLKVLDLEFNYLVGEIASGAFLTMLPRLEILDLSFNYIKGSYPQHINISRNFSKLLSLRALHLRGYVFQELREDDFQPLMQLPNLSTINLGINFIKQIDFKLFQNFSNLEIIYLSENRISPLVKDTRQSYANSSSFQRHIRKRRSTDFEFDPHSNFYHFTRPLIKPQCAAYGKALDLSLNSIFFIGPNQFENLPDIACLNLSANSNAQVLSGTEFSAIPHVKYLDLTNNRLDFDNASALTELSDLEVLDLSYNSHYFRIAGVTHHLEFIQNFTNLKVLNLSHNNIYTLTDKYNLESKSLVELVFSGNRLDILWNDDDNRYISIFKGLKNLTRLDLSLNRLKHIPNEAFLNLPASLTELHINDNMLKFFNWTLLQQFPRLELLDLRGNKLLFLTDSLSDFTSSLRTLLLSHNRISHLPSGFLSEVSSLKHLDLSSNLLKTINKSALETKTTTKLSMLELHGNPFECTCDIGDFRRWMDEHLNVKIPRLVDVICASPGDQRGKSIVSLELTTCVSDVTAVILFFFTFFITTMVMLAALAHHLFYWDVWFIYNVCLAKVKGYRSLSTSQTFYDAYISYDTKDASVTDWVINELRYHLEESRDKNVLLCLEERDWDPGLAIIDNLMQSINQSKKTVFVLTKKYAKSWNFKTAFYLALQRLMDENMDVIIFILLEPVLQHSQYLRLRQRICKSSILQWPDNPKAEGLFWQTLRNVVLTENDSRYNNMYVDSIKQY
In words: TLR8 human PBMC cell-based assay (antagonist, Compound A stimulated cytokine release). The settings on record: human PBMCs; TLR8 agonist Compound A 800 nM, 6 hours; cytokines (TNFa and IL 12p40) in supernatant; read-out: TLR-8 EC50. In outline:
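Cryopreserved donor PBMCs (100,000/well, RPMI + 10% FBS) were preincubated 1 h with antagonist (10-point dose response, quadruplicate), then stimulated with Compound A (800 nM final) for 6 h at 37 °C. TNFa and IL-12p40 in supernatants were measured by electrochemiluminescence; sigmoidal fits gave EC50.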

The target of the next assay is T2, TLR7 (Homo sapiens, UniProt Q9NYK1).
T2 construct: Human peripheral blood mononuclear cells (PBMCs) consist of lymphocytes, monocytes and dendritic cells that express TLR7, TLR8 and TLR9; endogenous in cells; host or cells: cryopreserved human PBMCs from healthy donors
T2 sequence (Q9NYK1 27-1049): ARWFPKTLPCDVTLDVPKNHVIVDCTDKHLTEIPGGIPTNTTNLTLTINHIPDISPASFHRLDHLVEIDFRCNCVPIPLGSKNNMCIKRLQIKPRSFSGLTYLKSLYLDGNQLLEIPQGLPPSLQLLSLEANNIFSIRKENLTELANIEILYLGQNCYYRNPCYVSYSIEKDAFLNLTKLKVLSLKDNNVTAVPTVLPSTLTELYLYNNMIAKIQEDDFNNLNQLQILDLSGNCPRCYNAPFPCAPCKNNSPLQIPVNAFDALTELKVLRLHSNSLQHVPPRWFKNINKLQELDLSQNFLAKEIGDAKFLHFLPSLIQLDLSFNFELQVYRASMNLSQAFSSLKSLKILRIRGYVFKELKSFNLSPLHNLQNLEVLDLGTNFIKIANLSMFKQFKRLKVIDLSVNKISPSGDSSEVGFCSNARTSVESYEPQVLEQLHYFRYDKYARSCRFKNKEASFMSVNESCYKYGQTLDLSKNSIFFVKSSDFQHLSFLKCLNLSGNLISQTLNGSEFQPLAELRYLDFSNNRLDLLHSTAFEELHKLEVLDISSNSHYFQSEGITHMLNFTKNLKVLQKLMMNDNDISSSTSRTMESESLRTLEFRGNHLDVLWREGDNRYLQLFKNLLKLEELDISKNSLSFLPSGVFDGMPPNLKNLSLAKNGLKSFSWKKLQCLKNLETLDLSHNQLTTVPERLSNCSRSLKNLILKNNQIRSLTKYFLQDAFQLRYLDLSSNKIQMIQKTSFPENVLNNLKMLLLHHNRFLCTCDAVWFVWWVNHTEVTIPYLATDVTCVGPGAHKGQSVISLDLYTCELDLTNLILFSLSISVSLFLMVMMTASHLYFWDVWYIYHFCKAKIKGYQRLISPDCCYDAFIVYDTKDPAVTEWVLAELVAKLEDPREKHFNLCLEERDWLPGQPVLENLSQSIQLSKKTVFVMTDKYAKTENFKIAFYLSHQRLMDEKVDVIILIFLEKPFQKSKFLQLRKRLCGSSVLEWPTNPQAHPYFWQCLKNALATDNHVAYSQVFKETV
Put plainly: TLR7 human PBMC cell-based assay (antagonist, GS-986 stimulated cytokine release). The settings on record: human PBMCs; TLR7 agonist GS-986 400 nM, 6 hours; cytokines (IL-6 and IFNα) in supernatant; read-out: TLR-7 EC50. In outline:
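EC50 derived by sigmoidal fitting of IL-6 and IFNα levels, quantified by electrochemiluminescence in supernatants of human PBMCs given 400 nM GS-986 for 6 h. Cells (100,000/well in RPMI-1640, 10% FBS) had received test antagonist 1 h beforehand, 10 doses in quadruplicate, at 37 °C.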

`Cc1cc(-c2[nH]c3cc(C(=O)N4CC(N)C4)sc3c2C(C)C)cn2ncnc12` [Example 114]: the results for the EC50 on TLR8 and on TLR7 were 7.5 nM and 12.7 nM, respectively.

For `Cc1cc(-c2[nH]c3cc(C(=O)N(C)C4CNC4)sc3c2C(C)C)cn2ncnc12` [Example 115], the EC50 is 38 nM on TLR8 and 3 nM on TLR7.

Turning to `Cc1cc(-c2[nH]c3cc(C(=O)N4CCNC[C@H]4c4ccccc4)sc3c2C(C)C)cn2ncnc12` [Example 116], the concentration giving a half-maximal response (EC50) on TLR8 is 14 nM; at TLR7 it was 16.2 nM.

On to `Cc1cc(-c2[nH]c3cc(C(=O)N4CCNCC4c4ccc(C(F)(F)F)cc4)sc3c2C(C)C)cn2ncnc12` (stereo not drawn) [Example 117], for which the figures for the 50% effective concentration (EC50) on TLR8 and at TLR7 were 47.8 nM and 209 nM, respectively.

Turning to `Cc1cc(-c2[nH]c3cc(C(=O)N4CCn5c(nnc5C(F)(F)F)C4)sc3c2C(C)C)cn2ncnc12` [Example 118], the EC50 stood at 47.8 nM on TLR8 and 18.9 nM at TLR7.

For `Cc1cc(-c2[nH]c3cc(C(=O)N4CCN[C@@H](c5ccccc5)C4)sc3c2C(C)C)cn2ncnc12` [Example 119], the EC50 was 0.3 nM at TLR8 and 42.4 nM at TLR7.

As for `Cc1cc(-c2[nH]c3cc(C(=O)N4CCC5(CCNCC5)C4)sc3c2C(C)C)cn2ncnc12` [Example 120], the EC50 at TLR8 was determined as 19.4 nM; on TLR7, 13 nM.

With `Cc1cc(-c2[nH]c3cc(C(=O)N4CCC5(CCNC5)CC4)sc3c2C(C)C)cn2ncnc12` [Example 121], the figures for the EC50 on TLR8 and on TLR7 were 9 nM and 1.2 nM, respectively.

Regarding `Cc1cc(-c2[nH]c3cc(C(=O)N4CCN[C@@H](CO)C4)sc3c2C(C)C)cn2ncnc12` [Example 122], the values for the EC50 on TLR8 and on TLR7 were 2.6 nM and 0.9 nM, respectively.

Consider `Cc1cc(-c2[nH]c3cc(C(=O)N4C[C@@H](C)NC[C@@H]4C)sc3c2C(C)C)cn2ncnc12` [Example 123], for which the figures for the EC50 at TLR8 and on TLR7 were 0.5 nM and 1.3 nM, respectively.

Take `Cc1cc(-c2[nH]c3cc(C(=O)N4C[C@H](C)NC[C@H]4C)sc3c2C(C)C)cn2ncnc12` [Example 124]: the concentration giving a half-maximal response (EC50) stood at 1.7 nM on TLR8 and 0.5 nM at TLR7.

For the molecule `Cc1cc(-c2[nH]c3cc(C(=O)N4CCN[C@@H](C)C4)sc3c2C(C)C)cn2ncnc12` [Example 125], the EC50 at TLR8 was 0.3 nM; at TLR7, 1.2 nM.

Take `Cc1cc(-c2[nH]c3cc(C(=O)N4CC5(CCNCC5)C4)sc3c2C(C)C)cn2ncnc12` [Example 126]: the EC50 was found to be 15.7 nM at TLR8 and 2.5 nM at TLR7.

For `Cc1cc(-c2[nH]c3cc(C(=O)N4C[C@@H](C)N[C@H](C)C4)sc3c2C(C)C)cn2ncnc12` [Example 127], the EC50 at TLR8 is 0.5 nM; at TLR7, 1.5 nM.

For `Cc1cc(-c2[nH]c3cc(C(=O)N4CCN[C@H](C)C4)sc3c2C(C)C)cn2ncnc12` [Example 128], the results for the concentration for a half-maximal effect (EC50) at TLR8 and at TLR7 were 0.8 nM and 1.1 nM, respectively.

As to `Cc1cc(-c2[nH]c3cc(C(=O)N4CCN[C@H](c5ccccc5)C4)sc3c2C(C)C)cn2ncnc12` [Example 129], the values for the EC50 at TLR8 and at TLR7 were 2.2 nM and 18.1 nM, respectively.

As for `Cc1cc(-c2[nH]c3cc(C(=O)N4CCNC(C(F)F)C4)sc3c2C(C)C)cn2ncnc12` (stereo not drawn) [Example 130], the EC50 at TLR8 was 28.6 nM; at TLR7 it was 40.7 nM.

In the case of `Cc1cc(-c2[nH]c3cc(C(=O)N4C[C@H]5NCCO[C@@H]5C4)sc3c2C(C)C)cn2ncnc12` [Example 131], the values for the EC50 at TLR8 and on TLR7 were 6.7 nM and 21 nM, respectively.

For the molecule `Cc1cc(-c2[nH]c3cc(C(=O)N4C[C@@H]5NCCO[C@@H]5C4)sc3c2C(C)C)cn2ncnc12` [Example 132], the EC50 on TLR8 stood at 26.9 nM; on TLR7, 33.7 nM.

As to `Cc1cc(-c2[nH]c3cc(C(=O)N(C)C4CCN(CC(F)F)CC4)sc3c2C(C)C)cn2ncnc12` [Example 134], the half-maximal effective concentration (EC50) on TLR8 worked out at 94.1 nM; on TLR7 it was 88.7 nM.

Take `CCN(C(=O)c1cc2[nH]c(-c3cc(C)c4ncnn4c3)c(C(C)C)c2s1)C1CCNCC1` [Example 135]: the results for the concentration for a half-maximal effect (EC50) at TLR8 and at TLR7 were 9.9 nM and 0.4 nM, respectively.

For the molecule `Cc1cc(-c2[nH]c3cc(C(=O)N(C)CCN(C)C)sc3c2C(C)C)cn2ncnc12` [Example 136], the figures for the EC50 on TLR8 and at TLR7 were 29.8 nM and 0.7 nM, respectively.

Turning to `Cc1cc(-c2[nH]c3cc(C(=O)N(C)Cc4cccnc4)sc3c2C(C)C)cn2ncnc12` [Example 137], the values for the EC50 on TLR8 and on TLR7 were 137 nM and 44.3 nM, respectively.

Take `Cc1cc(-c2[nH]c3cc(C(=O)N(C)C4CCN(C5COC5)CC4)sc3c2C(C)C)cn2ncnc12` [Example 139]: the 50% effective concentration (EC50) on TLR8 turned out to be 10.8 nM; at TLR7 it was 15 nM.

Consider `Cc1cc(-c2[nH]c3cc(C(=O)N(C)C4CCN(CCO)CC4)sc3c2C(C)C)cn2ncnc12` [Example 141], for which the half-maximal effective concentration (EC50) was 2.7 nM at TLR8 and 1.3 nM on TLR7.

`Cc1cc(-c2[nH]c3cc(C(=O)N(C4CCNCC4)C4CC4)sc3c2C(C)C)cn2ncnc12` [Example 143]: the EC50 on TLR8 worked out at 27 nM; at TLR7, 0.7 nM.

On to `Cc1cc(-c2[nH]c3cc(C(=O)N4CC[C@@H](N(C)C)C4)sc3c2C(C)C)cn2ncnc12` [Example 144], for which the EC50 worked out at 1.1 nM at TLR8 and 5.4 nM at TLR7.

In the case of `Cc1cc(-c2[nH]c3cc(C(=O)N4CCC[C@H]4CN)sc3c2C(C)C)cn2ncnc12` [Example 145], the EC50 on TLR8 amounted to 46.3 nM; at TLR7, 3.8 nM.

For `Cc1cc(-c2[nH]c3cc(C(=O)N4CC[C@@H](CN)C4)sc3c2C(C)C)cn2ncnc12` [Example 146], the EC50 on TLR8 was 27.2 nM; on TLR7, 19 nM.

On to `Cc1cc(-c2[nH]c3cc(C(=O)N4CC(N(C)C)C4)sc3c2C(C)C)cn2ncnc12` [Example 147], for which the results for the 50% effective concentration (EC50) on TLR8 and on TLR7 were 2.4 nM and 152 nM, respectively.

With `Cc1cc(-c2[nH]c3cc(C(=O)N4CCNC[C@H]4C)sc3c2C(C)C)cn2ncnc12` [Example 148], the EC50 on TLR8 was found to be 11 nM; on TLR7, 4.8 nM.

As to `Cc1cc(-c2[nH]c3cc(C(=O)N4CCNC[C@@H]4C)sc3c2C(C)C)cn2ncnc12` [Example 149], the values for the EC50 on TLR8 and at TLR7 were 10.5 nM and 2.8 nM, respectively.

For `Cc1c(-c2[nH]c3cc(C(=O)N(C)C4CCNCC4)sc3c2C(C)C)cn2ncnc2c1C` [Example 150], the EC50 turned out to be 2.5 nM on TLR8 and 1 nM at TLR7.
